Assay results as given in patent publication US10919887B2, “Salts and solid forms of a monobactam antibiotic” (Novartis AG, priority 2015, dated 2021).
≈ marks a conversion by molar mass, not a printed value.

Assays:
[1] = Stability of solid forms as relative humidity is varied; format: physicochemical
Procedure: This material is referred to herein as Form 5.
Water (20 mL) and THF (40 mL) were mixed in a flask, and Compound X (10 g, ca. 91% pure by HPLC) was added with stirring at 25° C. to provide a clear yellow solution. A 20 mg sample of Form 5 (see above) was added as a seed, and the mixture was stirred for 50 mins. THF (140 mL) was then added slowly, over 1 hr and the mixture was stirred for 2 hr more. The suspension was filtered, and the wet cake was washed with cold (<5° C.) water, then dried at 20-25° C. for 11 hrs at 100 mbar pressure, providing 6.6 g of Form 5 trihydrate that was 97.8% pure by HPLC. It appears stable when stored at 25-50% relative humidity, preferably 30-40% RH; at lower or higher relative humidity, it may evolve to different hydrated states as described herein.
Compound X of Form 1 (anhydrate) was exposed to 43% relative humidity for one day or more. The crystalline product appears to be a sesquihydrate (Compound X-1.5 H2O) based on water content determination. Note that Form 5, the trihydrate, under similar conditions would be stable, yet when starting with the anhydrate, it appears to equilibrate as a sequihdyrate under these conditions and remains in that form for at least 14 days when kept at the same relative humidity. This crystalline form produces the XRPD spectrum shown in FIG. 11, and is referred to herein as Form 10. The table below summarizes the main peaks in the XRPD of this sample.
Compound X of Form 5, the trihydrate, was exposed to relative humidity of 22% for about 3 days to provide a crystalline solid characterized as a dihydrate (Compound X-2H2O) based on water content analysis. […] The dihydrate, referred to herein as Form 11, produced the XRPD spectrum shown in FIG. 12: the main peaks in that XRPD spectrum are listed in the following table.
Compound X of Form 5 was exposed to air with a relative humidity of 65% for about 3 days, providing a crystalline material characterized as a tetra-hydrate based on water content analysis. […] The tetrahydrate, referred to herein as Form 12, produced the XRPD spectrum shown in FIG. 13: the main peaks in that XRPD spectrum are listed in the following table.
Note that at 92% relative humidity, Compound X appears to be a mixture of a crystal form characterized as hexahydrate mixed with the tetrahydrate of Form 12. By comparison, the anhydrate (Form 1) preferentially converts to a sesquihydrate as the relative humidity is increased to 43%, and evolves to trihydrate and tetrahydrate at higher relative humidities.

[2] = Stability of Compound X and its salts in aqueous solution; format: physicochemical; settings: salts made with 1.0 or 2.0 equiv. base, lyophilized; for aqueous media for intravenous use
Source text: It is important for a drug product to be stable enough to avoid significant degradation when it is shipped and stored under commercially practical conditions. The inventors have discovered that Compound X in solution is preferably used and stored at a pH between 4 and 6, preferably between 4.0 and 5.5, for maximum stability in the presence of moisture. Optimal solution stability is achieved at a pH of about 4.0 to 5.5 Accordingly, the invention provides pharmaceutical compositions comprising Compound X at a pH between 4 and 6, preferably between 4.0 and 5.5, and more preferably at a pH of about 5±0.5 or at pH of 5±0.2. Suitable compositions comprise Compound X in an aqueous solution, such as a dextrose or saline solution, which may be isotonic, and may contain other substances such as stabilizers, antioxidants, buffers or pH modifiers, nutrients, and the like. In some of these embodiments, the desired pH is achieved by combining Compound X and a pH modifier suitable to achieve the desired pH in an aqueous solution. Suitable pH modifiers include but are not limited to sodium hydroxide, sodium carbonate, sodium bicarbonate, potassium carbonate, potassium hydroxide, amines such as TRIS (tris(hydroxymethyl)aminomethane), and amino acids such as arginine, lysine, histidine, and the like. Known monobactams, including aztreonam, have been formulated with arginine. […]

[3] = Stability testing of solid salts at 25° C. and 40° C., purity by HPLC; format: physicochemical; settings: solid salt
Procedure: Salts of Compound X were prepared by adding a base (1.0 or 2.0 equiv.) to Compound X in water, and lyophilizing the solution. The solids thus obtained appear to be amorphous by XRPD. In this manner, formation of salts of Compound X were attempted with sodium hydroxide, (L)-lysine, (L)-arginine, calcium hydroxide, meglumine, and magnesium hydroxide.
Samples of the disodium salt and the di-(L)-arginine salt as solids were subjected to stability testing at 25° C. and 40° C. The sample of sodium salt was 97.2% pure by HPLC initially, and after 6 weeks at 25° C., it was still 96.2% pure. The same material held at 40° C. was 94.8% pure after 3 weeks, and 93.6% pure after 6 weeks. Significant impurities that appear or increase during the study appear at relative retention times (RRT) 0.34 and 1.11 (with Compound X defined as RRT=1).
The arginine salt was 97.3% pure by HPLC initially, and was 96.3% pure after 6 weeks at 25° C. At 40° C., its purity dropped to 95.1% after 3 weeks and 94.2% after 6 weeks. Significant impurities that appear or increase during this study appear at relative retention times (RRT) 1.09, 1.11 and 1.13 (with Compound X defined as RRT=1). The HPLC traces for the samples from these stability studies after 6 weeks at 25° C. and 40° C. respectively are shown in FIGS. 10 and 11. The lower trace in each Figure is a sample used to measure the limit of quantitation (LOQ); the next trace above that represents the sample of Compound X used for salt formation; the next trace above that one is for the arginine salt after 6 weeks; and the next (top) trace is for the sodium salt after 6 weeks.
HPLC Conditions for the stability studies (FIGS. 10 and 11):
Agilent 1290 system with UV detector at 260 nm
Acquity HSS T3 column, 100 mm×2.1 mm ID; 1.8 μm particle size (supplied by Waters)
• A: 0.05% TFA in water • B: 0.05% TFA in methanol Flow rate: 0.45 mL/min Gradient (A/B ratio): 97:3 for 8 minutes; 75:25 for 3 minutes; 0:100 for 1 minute

[4] = system: E. coli NB27273-CDY0026 (parent); test: MIC by broth microdilution, isogenic E. coli parent strain; format: cell-based; settings: Escherichia coli, read-out: Strain 1 MIC
Procedure: Bacterial isolates were cultivated from −70° C. frozen stocks by two consecutive overnight passages at 35° C. in ambient air on 5% blood agar (Remel, Lenexa, Kans.). Quality control and P. aeruginosa ATCC 27853) is from the American Type Culture Collection (ATCC; Rockville, Md.) and PAO1 was received from Dr. K. Poole.
Strain NB27273 (BW25113 pspB::Km^r) was obtained from the Keio transposon insertion collection. The strain has the pspB gene replaced by a kanamycin resistance marker (BW25113 pspB::Km^r). This strain was cured of the transposon in pspB via FLP recombinase using published methodology. The resulting strain, BW25113 pspB, was used as a host for multicopy vectors expressing key β-lactamases. Multicopy plasmids directing constitutive expression of β-lactamases were established as follows: Synthetic, codon optimized genes encoding E. coli KPC2 and SHV12-lactamases were made by DNA2.0 (Palo Alto, Calif.). Each of the synthetic fragments were designed to contain NotI and NcoI restriction sites at their termini, allowing ligation into a NotI/NcoI digested pET28a(+) derivative for protein expression. […]

Nc1nc(/C(=N/OC2(C(=O)O)CC2)C(=O)N[C@@H]2C(=O)N(S(=O)(=O)O)[C@@H]2CN2CCOC2=O)cs1 [Form 5]
form change at high relative humidity ([1]; RH above 80%): converts to Form 4 within a day
relative humidity at which the form appears stable when stored ([1]; storage of Form 5 trihydrate): 25-50%

Nc1nc(/C(=N/OC2(C(=O)O)CC2)C(=O)N[C@@H]2C(=O)N(S(=O)(=O)O)[C@@H]2CN2CCOC2=O)cs1 [Form 10]
time the form remains unchanged ([1]; kept at 43% relative humidity): at least 14 days

Nc1nc(/C(=N/OC2(C(=O)O)CC2)C(=O)N[C@@H]2C(=O)N(S(=O)(=O)O)[C@@H]2CN2CCOC2=O)cs1 [Form 12]
form change when relative humidity is reduced ([1]; relative humidity reduced to about 40%): readily reverts to the trihydrate (Form 5)

N=C(N)NCCC[C@H](N)C(=O)O.N=C(N)NCCC[C@H](N)C(=O)O.Nc1nc(/C(=N/OC2(C(=O)O)CC2)C(=O)N[C@@H]2C(=O)N(S(=O)(=O)O)[C@@H]2CN2CCOC2=O)cs1 [arginine salt]
stability of salts [2]: particularly stable
purity by HPLC ([3]; after 3 weeks at 40° C.): 95.1%
purity by HPLC ([3]; after 6 weeks at 25° C.): 96.3%
purity by HPLC ([3]; after 6 weeks at 40° C.): 94.2%
purity by HPLC ([3]; initially): 97.3%

C[C@H]1[C@H](NC(=O)/C(=N\OC(C)(C)C(=O)O)c2csc(N)n2)C(=O)N1S(=O)(=O)O [compound 1]
MIC [4]: 0.125 µg/mL (≈ 0.287 µM)
